Assay results taken from patent US10300000B2, “Inhibition of melanogenesis by chemically modified curcumins” (The Research Foundation for The State University of New York, priority 2016, dated 2019).
Like-named read-outs stand apart in the source and are kept apart here.

What was measured:
[1] = test system: HEM-DP cells; experiment: Melanin content quantification in human epidermal melanocytes; format: cell-based; details: 48 hours
Experimental: Primary cultures of human epidermal melanocytes from a darkly pigmented donor were seeded at 2.2×10^5 cells/well in 1.5 ml media in 12-well plates and incubated for 48 hours. The test compounds were added to cultures and controls were treated with 0.16% DMSO, and further incubated for another 48 hours. For evaluation of melanin content, cells in the wells were trypsinized and cell pellets were washed in PBS. After aspiration, 250 μL of 1N NaOH was added and heated to 70° C. to solubilize melanin. The aliquots were then transferred to a 96-well plate and absorbance was read at 475 nm using microplate reader. A portion of the lysate was used to evaluate total protein content using […] bincinchonic acid (BCA) assay (Pierce BCA kit, Thermo Scientific). The absorbance of melanin was normalized to the total protein content for each lysate and reported as % of control.

[2] = test system: αMSH-stimulated B16F10 cells; experiment: Melanin content in αMSH-stimulated B16F10 cells; format: cell-based, mouse; parameters: dose or concentration left out as unconfirmed; details: αMSH-stimulated B16F10, 48 hours
Experimental: B16F10 cells were seeded at 1×10^5 cells/well in 12-well plates and incubated for 24 hours. The test compounds were then added in presence or absence of αMSH (100 nM), and further incubated for another 48 hours. For evaluation of melanin content, cells were trypsinized, washed in PBS and then 250 μL of 1N NaOH was added and heated to 70° C. to solubilize melanin. The aliquots were then transferred to a 96-well plate and absorbance was read at 475 nm using microplate reader. The absorbance of melanin was normalized by total protein contents and reported as % of control.

[3] = test system: B16F10 mouse melanoma cells; format: cell-based; details: for cell viability: mouse, 48 h
Experimental: In order to test the four CMCs (CMC2.14, CMC2.24, CMC2.5 and CMC2.23) alongside PC and THC, for their effects on melanin content, we first screened their nontoxic concentrations using MTS cytotoxicity (Promega CellTiter Aqueous One) assay. MTS is a tetrazolium salt which is reduced to purple colored formazan upon reaction with mitochondrial dehydrogenases. Briefly, B16F10 cells were seeded at 4×10^3 cells/well in 96-well plates for 24 hrs. […] Controls were treated with 0.16% DMSO. At the end of 48 hours, medium was aspirated and replaced by 100 μl of fresh media. MTS (20 μl) was added and incubated for 40 minutes and absorbance read at 490 nm using a Versamax® microplate reader. Cell viability was calculated from the absorbance values relative to control groups and expressed in %.

[4] = test system: B16F10 cells; experiment: Melanin content quantification in B16F10 cells; format: cell-based, mouse; details: Mus musculus, B16-F10
Experimental: B16F10 cells were seeded at 1×10^5 cells/well in 1.5 ml media in 12-well plates and incubated for 24 hours. […] For quantification of melanin content, cells were trypsinized and cell pellets were washed in PBS. Cell pellets were also visually observed for lightening of the intracellular pigment. After aspiration, 250 μL of 1N NaOH was added and heated to 70° C. to solubilize melanin. The aliquots were then transferred to a 96-well plate and absorbance was read at 475 nm using a microplate reader. A portion of the lysate was used to evaluate total protein content using BCA assay. The melanin absorbance was normalized by total protein content and expressed as % of control.

[5] = Copper chelating activity assay (pyrocatechol violet); format: physicochemical; details: PV dye method
Experimental: Metal ion chelation activity can be detected by pyrocatechol violet indicator assay which is similar to that reported in other studies with some modifications [Baek, S-H. et al. 2015]. Briefly, 100 μl of sample containing different concentrations of solutes were mixed with 50 mM sodium acetate buffer (pH 6.0) in a 96 well plate. Control group consisted of buffer only; KA at 500 μM was used as a positive control. Copper sulfate (2 mM; 10 μl) was added to the samples and incubated for 10 minutes. 10 μl of 2 mM pyrocatechol violet was then added and the plate was further incubated for 20 minutes. The absorbance was read at 632 nm using a microplate reader (Versamax). Lower absorbance compared to control was indicative of copper chelation.

[6] = test system: intracellular ROS in B16F10 cells; experiment: Intracellular ROS assay (H2DCFDA) in B16F10 cells; format: cell-based, mouse; details: 48 hours
Experimental: Intracellular ROS generation was quantified using 2′,7′-dichlorodihydrofluorescein diacetate (H2DCFDA), a non-fluorescent dye which is trapped intracellularly by cleavage by intracellular esterases after reaction with reactive oxygen species (ROS); only the product, DCF, is fluorescent. For measuring intracellular ROS, B16F10 cells were seeded in 24 well plates at 4×10^4 cells/well. After 24 hours, media was aspirated and PC, THC and CMCs were added to the wells at different concentrations and further incubated for 48 hours. At the end of the incubations, the media was aspirated and cells were washed with PBS. DCFDA (Molecular Probes) was dissolved in DMSO to make 10 mM stock. DCFDA dye working stock (50 μM) was prepared by diluting the stock in DMEM (serum-free, phenol-red free and sodium pyruvate free) media and added to cells and further incubated for 45 minutes at 37° C. The cells were then washed with DPBS and fluorescence was read in bottom read mode, using a fluorescence microplate reader (Gemini EM Spectramax, Molecular Devices) set to excitation and emission wavelengths of 485 nm and 535 nm, respectively. Data was expressed as relative fluorescence % of treated vs. control.

[7] = test system: MITF; experiment: MITF protein levels by cell-based ELISA in B16F10 cells; parameters: species or system mouse; details: B16F10, 10 μM, 48 hours
Experimental: MITF is the master regulator of melanogenesis and a known transcription factor for tyrosinase gene. The effects of PC and CMCs on micropthalmia transcription factor (MITF) proteins levels were assayed using a cell-based ELISA (LifeSpan Biosciences, Seattle). Briefly, B16F10 cells were cultured in a 96-well plate at 1×10^4 cells/well for 24 hours and then media was replaced with fresh media containing compounds in 0.1% DMSO for further 48 hours. The cells were then fixed and subsequent steps were conducted based on manufacturer instructions. The absorbance of MITF expression levels were normalized by absorbance of crystal violet stain (0.05%) and data was reported as % of control.

[8] = molecular target: T1, cellular tyrosinase in HEM-DP cells (Homo sapiens, UniProt P14679); experiment: Intracellular tyrosinase activity in human melanocytes; format: cell-based; details: 48 hours
T1 construct: endogenous in cells; host or cells: HEM-DP (primary human epidermal melanocytes, darkly pigmented donor)
T1 sequence (P14679 19-529): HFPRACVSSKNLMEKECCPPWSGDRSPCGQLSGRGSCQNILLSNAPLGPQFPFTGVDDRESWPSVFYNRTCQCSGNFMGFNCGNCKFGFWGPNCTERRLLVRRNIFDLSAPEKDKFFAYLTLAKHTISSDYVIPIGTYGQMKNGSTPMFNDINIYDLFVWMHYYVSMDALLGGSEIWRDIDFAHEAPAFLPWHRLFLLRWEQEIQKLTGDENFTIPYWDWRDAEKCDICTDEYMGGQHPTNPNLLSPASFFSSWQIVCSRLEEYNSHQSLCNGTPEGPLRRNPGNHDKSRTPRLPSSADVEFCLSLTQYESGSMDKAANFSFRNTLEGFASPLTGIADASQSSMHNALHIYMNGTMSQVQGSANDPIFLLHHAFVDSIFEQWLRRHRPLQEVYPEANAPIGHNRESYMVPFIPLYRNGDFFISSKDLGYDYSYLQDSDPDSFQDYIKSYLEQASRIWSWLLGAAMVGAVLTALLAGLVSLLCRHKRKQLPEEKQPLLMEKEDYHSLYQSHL
Experimental: We quantitated the cellular tyrosinase activity of human melanocytes based on established methods. Briefly, human epidermal melanocytes from a darkly pigmented donor (HEM-DP) were cultured in 12-well tissue culture plates at density of 1.5×10^5 cells/well. After 48 hrs. media was changed and test compounds were added, and further incubated for 48 hrs. At the end of treatments, cells were trypsinized and cell pellets were washed in PBS and lysed with lysis buffer under ice for 30 minutes and then centrifuged to remove cellular debris. 50 μl of lysates were then aliquoted in 96-well microplate and 150 μl of freshly prepared 3 mM L-DOPA was added. The absorbance was then measured kinetically at 475 nm every 30 seconds for 30 minutes at 30° C. using microplate reader (Versamax®). The % inhibition of tyrosinase activity was calculated by determining melanin formation rates from the linear range of the slopes of melanin formation over time for the different samples and calculating % inhibition from the measured velocities of melanin formation.

[9] = test system: HaCaT cells; details: human, 48 h, 10 μM
Experimental: Briefly, 2×10^4 cells/well were seeded in 96-well plates and after 24 hours, the compounds at concentrations of 5-25 μM were added to the wells and incubated for 48 hours. Absorbance was read after 1 hour of incubation of plates and results were expressed as % of control.

[10] = test system: normal human dermal fibroblasts (NHDF); experiment: MTS cytotoxicity test with human dermal fibroblasts; details: 48 hours
Experimental: Briefly 5×10^3 cells/well were plated in 96 wells and compounds added for 48 hours. MTS assay was then conducted and plate incubated for 1 hour and then 100 μl of supernatants were aliquoted into 96 well plates and absorbance read at 490 nm using Versamax microplate reader.

[11] = test system: HEM-DP cells; experiment: MTS cytotoxicity test with human epidermal melanocytes; format: cell-based; details: 5-25 μM, 48 hours
Experimental: For screening cytotoxicity of PC, THC and CMCs during 48 hours incubation on HEM-DP cells, we conducted MTS cytotoxicity assay. […] MTS reagent was added and incubated for 90 minutes and absorbance was read at 490 nm. The results are expressed as % relative to control.

Compound: O=c1cc(CO)occ1O [KA, kojic acid, reference compound]
- reduction in melanin content ([1]; 1 mM): 10%
- reduction of melanin [2]: 20%

Compound: COc1cc(/C=C/C(=O)CC(=O)/C=C/c2ccc(O)c(OC)c2)ccc1O [PC, Curcumin]
- cytotoxicity, overall ranking [3]: most cytotoxic
- increase of cell proliferation ([3]; B16F10, 5 μM, 48 hours, MTS): 13%
- cell viability ([3]; 20 μM): 24.44%
- cell viability ([3]; 25 μM): 16.55%
- inhibition at 10 µM ([4]; B16F10, 10 μM, 48 hours): 32.1%
- IC50 ([4]; B16F10 cells exposed for 48 hours, non-linear curve fitting, read-out: IC50-Melanin Inhibition): 20.8 µM
- copper chelating activity [5]: did not show any effect
- reduction of intracellular ROS ([6]; B16F10, 10 μM): 24%
- inhibition of MITF protein levels [7]: ≤ 30%
- effect on melanin content (words) ([1]; nontoxic concentrations tested (PC 5 and 10 μM)): did not show any significant difference
- inhibition of cellular tyrosinase activity ([8]; 5 μM): significantly (p<0.01) inhibited
- inhibition of cellular tyrosinase activity ([8]; 10 μM): significantly (p<0.01) inhibited
- cell viability [9]: 90.12%
- cell viability ([10]; 10 μM, MTS): 71.9%
- toxicity ([10]; range tested 5-25 μM): significantly toxic

Compound: COc1cc(CCC(=O)CC(=O)CCc2ccc(O)c(OC)c2)ccc1O [THC, Tetrahydrocurcumin]
- reduction of intracellular ROS ([6]; B16F10, 5 μM): 24%
- cytotoxicity [11]: nontoxic
- inhibition at 25 µM ([8]; 25 μM): 24%
